Reference: ChEMBL document CHEMBL1201862, “PubChem BioAssay data set” (2004)
Counter-ions that a name gives are not always drawn. Calls of active or inactive are those of the source.

What was measured:
[1] = biological target: NAD-dependent protein deacylase sirtuin-5, mitochondrial (Homo sapiens, UniProt Q9NXA8); assay: blockers of sirtuin-5 peptide desuccinylation – biochemical, fluorescence imaging, cherry-pick, set 6, dose response (AID 720597)
[2] = biological target: Oxysterols receptor LXR-beta (Homo sapiens, UniProt P55055); type: functional, cell-based;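 further: Cell-based luminescence dose-response assay of agonist activity at LXR, run as a confirmatory counterscreen to a daf-12 agonist screen; HEK293 cells with Gal4-LXR fusion and GAL4-driven luciferase reporter; agonist potency from rising luciferase signal of a Gal4-LXR reporter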
cells [3] = assay: cells
[4] = Single fluorophore orthopox expression reporter, late gene expression Measured in Cell-Based and Microorganism Combination System Using Plate Reader - 2142-08_Inhibitor_Dose_DryPowder_Activity.; type: functional
[5] = lung carcinoma cell viability loss – CellTiter-Glo luminescence, dry powder, set 17, dose response (AID 1117284); type: functional, cell-based; settings: A549
[6] = inhibitors of orthopox intermediate gene expression, dose response, cell-based, single fluorophore reporter, dry powder (AID 1117271); type: functional
[7] = Orthopox viral replication plaque formation Measured in Cell-Based and Microorganism Combination System Using Imaging - 2142-05_Inhibitor_Dose_DryPowder_Activity.; type: functional
[8] = viability loss in HEK293 cells – cell-based, luminescence, dry powder, set 12, cytotoxicity control, dose response (AID 743354); type: functional
[9] = viability loss in HepG2 liver cells – cell-based, luminescence, dry powder, set 9, cytotoxicity control, dose response (AID 743358); type: functional
[10] = growth inhibition of yeast DHODH-expressing 3D7 parasites – SYBR Green, dry powder samples, dose response (AID 1159570); type: functional, cell-based;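 further: parasite growth measured after 72 hours of compound exposure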
[11] = toxicity to human HepG2 hepatoma cells – cell-based, plate reader, dry powder samples, cytotoxicity control, dose response (AID 1159569); type: functional;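 further: inhibitor potency with signal falling toward the positive control level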
[12] = Dd2 parasite growth inhibition in erythrocytes – SYBR Green, dry powder samples, set 9, dose response (AID 1159568); type: functional, cell-based
[13] = P. falciparum Dd2 growth inhibitors, dose response, SYBR Green, cherry-picked samples (AID 1159567); type: functional, cell-based
[14] = Dd2 malaria parasite growth inhibition potency – SYBR Green, dry powder samples, dose response (AID 1159566); type: functional, cell-based;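 further: potency for growth inhibition with lower SYBR green DNA signal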
[15] = Plasmodium falciparum Dd2 Sybr green parasite growth Measured in Cell-Based and Microorganism Combination System Using Plate Reader - 2153-01_Inhibitor_Dose_DryPowder_Activity_Set3.; type: functional
[16] = growth inhibition of PfATP4-mutant resistant parasites – NITD609-resistant line, SYBR Green, dry powder, dose response (AID 1159571); type: functional, cell-based;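 further: parasites synchronized at ring stage by sorbitol before testing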
[17] = rise of 2N DNA cells, HeLa – IC50, dose response (AID 1117349); type: functional, cell-based
[18] = rise of 4N DNA cells, HeLa – IC50, dose response (AID 1117351); type: functional, cell-based
[19] = test system: Streptococcus sp. 'group A'; assay: Streptococcus pyogenes SK(-)GAS viability under kanamycin – luminescence, BacTiterGlo, confirmation, counter-screen for streptokinase expression inhibitor project, dose response (AID 1900); type: functional, organism-based
Streptococcus = assay: GAS UMAA2166 growth inhibition – luminescence, BacTiterGlo, counter-screen for streptokinase expression inhibitor project, dose response (AID 1915); type: functional, organism-based; settings: read-out: EC50;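 further: potency for reduction of bacterial viability or growth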
[20] = glucagon-like peptide-1 release potency in STC-1, concentration-response, half-maximal inhibitory concentration in the STC-1 line (AID 1117345); type: functional, cell-based
[21] = Potency on glucagon-like peptide 1 release, dose-response in NCI-H716 cell line, half maximal inhibitory concentration (AID 1117344); type: functional, cell-based
cells [22] = type: functional, cell-based
[23] = biological target: T1, Trace amine-associated receptor 1 (Homo sapiens, UniProt Q96RJ0); assay: Fluorescence-based cell-based high throughput dose response assay to identify agonists of the human trace amine associated receptor 1 (TAAR1).; type: functional
T1 sequence (Q96RJ0 whole entry): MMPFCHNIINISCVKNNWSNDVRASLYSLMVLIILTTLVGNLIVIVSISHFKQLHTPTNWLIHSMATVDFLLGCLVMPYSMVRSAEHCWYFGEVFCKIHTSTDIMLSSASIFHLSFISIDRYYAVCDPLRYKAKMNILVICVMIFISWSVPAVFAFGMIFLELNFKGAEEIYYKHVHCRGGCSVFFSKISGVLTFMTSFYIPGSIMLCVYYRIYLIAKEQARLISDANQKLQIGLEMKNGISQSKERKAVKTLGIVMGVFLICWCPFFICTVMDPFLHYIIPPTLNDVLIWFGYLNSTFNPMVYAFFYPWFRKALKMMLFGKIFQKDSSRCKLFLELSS

[24] = biological target: T1, Trace amine-associated receptor 1; assay: Counterscreen for agonists of the human trace amine associated receptor 1 (hTAAR1): Fluorescence-based cell-based high throughput dose response assay to identify hTAAR1 agonist that also desensitize TAAR1 receptor response.; type: functional
cells [25] = type: functional, cell-based; remark: listed apart in the source
[26] = IC50 of insulin release inhibition, rat insulinoma INS-1E line, 5 mM glucose, cell-based (AID 1117331); type: functional
cells [27] = type: functional, cell-based; settings: INS-1E

Oxysterols receptor LXR-beta, sequence (P55055 whole entry, the tested form may be a part): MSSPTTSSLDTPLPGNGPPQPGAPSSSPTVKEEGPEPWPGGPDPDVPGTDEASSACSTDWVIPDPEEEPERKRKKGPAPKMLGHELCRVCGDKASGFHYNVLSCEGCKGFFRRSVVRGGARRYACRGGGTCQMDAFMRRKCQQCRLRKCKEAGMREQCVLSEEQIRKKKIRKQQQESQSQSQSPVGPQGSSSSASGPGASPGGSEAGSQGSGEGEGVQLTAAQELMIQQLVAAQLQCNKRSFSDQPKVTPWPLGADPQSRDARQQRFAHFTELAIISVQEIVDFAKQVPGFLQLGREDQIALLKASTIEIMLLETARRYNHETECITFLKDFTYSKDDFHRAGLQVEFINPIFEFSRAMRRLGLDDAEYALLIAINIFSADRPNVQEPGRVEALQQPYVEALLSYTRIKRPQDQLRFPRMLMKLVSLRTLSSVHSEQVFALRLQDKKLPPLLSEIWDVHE
NAD-dependent protein deacylase sirtuin-5, mitochondrial, sequence (Q9NXA8 whole entry, the tested form may be a part): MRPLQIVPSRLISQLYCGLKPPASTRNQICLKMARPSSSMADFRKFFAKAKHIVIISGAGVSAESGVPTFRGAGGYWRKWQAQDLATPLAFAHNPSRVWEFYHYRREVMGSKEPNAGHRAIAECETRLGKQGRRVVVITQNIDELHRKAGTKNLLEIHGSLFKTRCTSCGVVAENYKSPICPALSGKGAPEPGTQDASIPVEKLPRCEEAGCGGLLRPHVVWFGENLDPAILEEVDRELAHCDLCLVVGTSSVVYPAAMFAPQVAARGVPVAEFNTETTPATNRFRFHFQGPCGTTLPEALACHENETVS

COc1ccc(S(=O)(=O)Nc2ccc3c(c2)CC(=O)N([C@H](C)CO)C[C@@H](C)[C@@H](CN(C)Cc2ccc(C(F)(F)F)cc2)O3)cc1
AC50 [1]: > 30 µM (inactive)

C/C(=N\Nc1ccccc1[N+](=O)[O-])c1ccccc1O
EC50 [2]: > 67.6 µM (inactive) | EC50 (cells [3]): > 67.6 µM (inactive)

Cc1cccc(-c2ccc(CN(C)C[C@@H]3Oc4cc(C#C[C@@H](C)O)ccc4S(=O)(=O)N([C@@H](C)CO)C[C@@H]3C)cc2)c1
AC50 [4]: 1.48 µM (active) | AC50 [5]: 35.5 µM (active) | AC50 [6]: 1.85 µM (active) | AC50 [7]: 0.15 µM (active)

COC(=O)CCCCCCC(=O)N1CC[C@@H]2[C@@H](CO)N(C)c3ccc(-c4cccc(F)c4)cc3[C@@H]21
AC50 [8]: 46.1 µM (active) | AC50 [9]: > 52 µM (inactive)

CCCN1C[C@H](C)[C@@H](OC)CN(C)C(=O)c2cc(NC(=O)Nc3cccc(F)c3)ccc2OC[C@H]1C
AC50 [10]: 15.2 µM (active) | AC50 [11]: 42.2 µM (active) | AC50 [12]: 1.61 µM (active) | AC50 [13]: 2.11 µM (active) | AC50 [14]: 0.469 µM (active) | AC50 [15]: 2 µM (active) | AC50 [16]: 2.47 µM (active)

CCCCCCNC(=O)n1cc(F)c(=O)[nH]c1=O [CARMOFUR]
IC50 [17]: > 10 µM (inactive) | IC50 [18]: > 10 µM (inactive)

Clc1ccc(CO/N=C(\Cn2ccnc2)c2ccc(Cl)cc2Cl)c(Cl)c1 [OXICONAZOLE NITRATE]
EC50 [19]: 1.92 µM (active) | EC50 (Streptococcus): 3.82 µM (active) | IC50 [20]: > 40 µM (inactive) | IC50 [21]: > 40 µM (inactive)

N[C@@H]1C[C@H]1c1ccccc1 [TRANYLCYPROMINE HYDROCHLORIDE]
IC50 (cells [22]): > 29.9 µM (inactive) | EC50 [23]: 0.611 µM (active) | IC50 [24]: 2.1 µM (active) | EC50 (cells [25]): > 29.9 µM (inactive) | IC50 [26]: > 33.3 µM (inactive) | IC50 (cells [27]): > 33.3 µM (inactive)
